For 19 molecules, IC50 results are on record in patent publication US10392405B2, “Macrocyclic immunomodulators” (CHEMOCENTRYX, INC., priority 2017, dated 2019).

Each structure is given as a SMILES string.

The IC50 is the midpoint of a concentration-inhibition curve. A lower IC50 goes with inhibition by little substance.

Sequence of human PD-L1 / Human PD-1 (Q9NZQ7 19-239): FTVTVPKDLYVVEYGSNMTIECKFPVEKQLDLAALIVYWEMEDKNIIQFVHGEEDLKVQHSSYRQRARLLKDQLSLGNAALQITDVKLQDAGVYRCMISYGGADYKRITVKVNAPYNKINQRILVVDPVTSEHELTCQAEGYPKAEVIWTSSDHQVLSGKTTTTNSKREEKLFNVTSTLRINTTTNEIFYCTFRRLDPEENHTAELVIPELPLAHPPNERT

The assay has as its target human PD-L1 / Human PD-1 (Homo sapiens (Human), UniProt Q9NZQ7). Put plainly: Enzyme-Linked Immunosorbent Assay (ELISA), PD-1/PD-L1 binding. The settings on record: plate-coated human PD-L1, biotinylated human PD-1, absorbance 450 nm. On the procedure:
96 Well plates were coated with 1 μg/mL of human PD-L1 (obtained from R&D) in PBS overnight at 4° C. The wells were then blocked with 2% BSA in PBS (W/V) with 0.05% TWEEN-20 for 1 hour at 37° C. The plates were washed 3 times with PBS/0.05% TWEEN-20 and the compounds were serial diluted (1:5) in dilution medium and added to the ELISA plates. Human PD-1 and biotin 0.3 μg/mL (ACRO Biosystems) were added and incubated for 1 hour at 37° C. then washed 3 times with PBS/0.05% TWEEN-20. A second block was performed with 2% BSA in PBS (W/V)/0.05% TWEEN-20 for 10 min at 37° C. and was washed 3 times with PBS/0.05% TWEEN-20. Streptavidin-HRP was added for 1 hour at 37° C. then washed 3 times with PBS/0.05% TWEEN-20. TMB substrate was added and reacted for 20 min at 37° C. A stop solution (2 N aqueous H2SO4) was added. The absorbance was read at 450 nm using a micro-plate spectrophotometer.
Compounds in Table 1 were prepared by methods as described in the Examples and evaluated according to the assay above. The IC50 of the compounds are presented in Table 1 as follows: • +, 20000 nM≥IC50≥500 nM; • ++, 500 nM≥IC50≥100 nM; • +++, 100 nM>IC50.
A general note: ELISA stands for enzyme-linked immunosorbent assay.
In turn, `Cc1c(COc2cc3c(cc2Cl)CNC(CO)CCCCNC(=O)c2cncc(c2)CO3)cccc1-c1cccc(OCCCN2CC[C@@H](O)C2)c1C` (single isomer, unassigned) [Compound 1.024] gave an IC50 of less than 100 nM.
The result for `COc1cccc(-c2cccc(COc3cc4c(cc3Cl)CN[C@H](C(=O)O)CCCCNC(=O)c3cncc(c3)CO4)c2C)c1F` [Compound 1.001] reads less than 100 nM.
`Cc1c(COc2cc3c(cc2Cl)CN[C@H](C(=O)O)CCCCNC(=O)c2cncc(c2)CO3)cccc1-c1ccc2c(c1)OCCO2` [Compound 1.002] returned an IC50 of less than 100 nM.
In the case of `Cc1c(COc2cc3c(cc2Cl)CN[C@H](C(=O)O)CCCCNC(=O)c2cncc(c2)CO3)cccc1-c1ccccc1F` [Compound 1.003] it was less than 100 nM.
In the case of `Cc1c(COc2cc3c(cc2Cl)CN[C@H](C(=O)O)CCCCNC(=O)c2cncc(c2)CO3)cccc1-c1cccc(OCCCN2CCC(O)CC2)c1C` [Compound 1.004] it was less than 100 nM; in that of `Cc1c(COc2cc3c(cc2Cl)CN[C@H](C(=O)O)CCCCNC(=O)c2cncc(c2)CO3)cccc1-c1cccc(OCCCCl)c1C` [Compound 1.005], 500 to 20000 nM.
In the case of `Cc1c(COc2cc3c(cc2Cl)CN[C@@H](CO)C(=O)NCCNC(=O)c2cncc(c2)CO3)cccc1-c1ccccc1` [Compound 1.006] it was 100 to 500 nM; in that of `O=C1NCCCC[C@@H](C(=O)O)NCc2cc(Cl)c(O[C@H]3CCc4c(-c5ccccc5F)cccc43)cc2OCc2cncc1c2` [Compound 1.007], 100 to 500 nM; in that of `Cc1c(COc2cc3c(cc2Cl)CN[C@H](C(=O)O)COCCNC(=O)c2cncc(c2)CO3)cccc1-c1ccccc1` [Compound 1.008], 100 to 500 nM.
`Cc1c(COc2cc3c(cc2Cl)CN[C@H](C(=O)O)CCNC(=O)c2cncc(c2)CO3)cccc1-c1ccccc1` [Compound 1.009] came in with an IC50 of 500 to 20000 nM.
The result for `Cc1c(COc2cc3c(cc2Cl)CN[C@H](C(=O)O)CCCNC(=O)c2cncc(c2)CO3)cccc1-c1ccccc1` [Compound 1.010] reads 100 to 500 nM.
In the case of `Cc1c(COc2cc3c(cc2Cl)CN[C@H](CC(=O)O)CCCCNC(=O)c2cncc(c2)CO3)cccc1-c1ccccc1` [Compound 1.011] it was 100 to 500 nM.
The result for `Cc1c(COc2cc3c(cc2Cl)CN[C@H](C(=O)O)CCCCNC(=O)CCCCO3)cccc1-c1ccccc1` [Compound 1.012] reads 100 to 500 nM; that for `Cc1c(COc2cc3c(cc2Cl)CN[C@H](C(=O)O)CCCCNC(=O)c2cncc-3c2)cccc1-c1ccccc1` [Compound 1.013], 500 to 20000 nM.
For `O=C1NCCCC[C@@H](C(=O)O)NCc2cc(Cl)c(O[C@H]3CCc4c(-c5ccc6c(c5F)OCCO6)cccc43)cc2OCc2cncc1c2` [Compound 1.014], the IC50 was less than 100 nM.
On to `Cc1c(COc2cc3c(cc2Cl)CN[C@H](C(=O)O)CCCCNC(=O)c2cncc(c2)CO3)cccc1-c1ccccc1` [Compound 1.016], for which the IC50 is less than 100 nM.
With `Cc1c(COc2cc3c(cc2Cl)CN[C@H](C(=O)O)CCCCNC(=O)c2cncc(c2)CO3)cccc1-c1cccc(OCCCN2CC(O)C2)c1C` [Compound 1.020], the IC50 was less than 100 nM.
The result for `Cc1c(COc2cc3c(cc2Cl)CN[C@H](C(=O)O)CCCCNC(=O)c2cc(C#N)cc(c2)CO3)cccc1-c1cccc(OCCCN2CCC(F)CC2)c1C` [Compound 1.021] reads less than 100 nM; that for `Cc1c(COc2cc3c(cc2Cl)CN[C@H](CO)CCCCNC(=O)c2cncc(c2)CO3)cccc1-c1cccc(OCCCN2CCC(F)CC2)c1C` [Compound 1.025], less than 100 nM.
